Assay results: patent US20200276181A1, “THIENOISOQUINOLINES AND THEIR DERIVATIVES FOR TARGETING TUBULIN, CH-TOG, AURORA A KINASE, TPX2, CDK5RAP2 AND/OR ASPM” (VALORBEC, SEC, priority 2017, published 2020)
pIC50: −log10 of the molar value.

What was measured:
A549 cells = assay: Viability IC50, high-throughput automated analysis (Table 4); type: cell-based; settings: Homo sapiens, 3 population doubling times
Method: (§1) FIG. 1A) is a line graph showing changes in the percentage of viable HFF-1, HeLa, A549 and HCT 116 cells after treatment with a range of C75 concentrations for 3 population doubling times (N=3). […] There were more rounded mitotic cells after C75 treatment in comparison to the control. FIG. 1C) is a line graph showing the percentage of HeLa and HFF1 cells in mitosis after treatment with various concentrations of C75 for 8 hours. The bars indicate standard deviation. FIG. 1D) is a series of images showing cells that were fixed and co-stained for tubulin (microtubules) and DAPI (DNA). Treatment of HeLa cells with 300 nM C75 caused the mitotic spindles to be disorganized, while they were not affected in HFF1 cells. […] The scale bar for the cells is 10 μm. […] FIG. 1F) is a cartoon schematic showing the key features of a metaphase cell.
(§2) The images in FIG. 1B) show fields of view of HeLa cells treated with (dimethyl sulfoxide) DMSO or 500 nM of C75. […] Higher concentrations of C75 caused spindle phenotypes in HFF1 cells, but they were quite different in comparison to HeLa cells (FIG. 1D).

HeLa cells = assay: as above; type: cell-based; settings: Homo sapiens, 3 population doubling times
Method: as §1, §2

[1] = test system: HeLa cells in comparison to HFF1 cells; assay: Percentage of cells in mitosis, 8 hours; type: cell-based; settings: nanomolar range
Method: as §1, §2

HCT116 cells = assay: Viability IC50 of C75 in combination with subthreshold colchicine; type: cell-based; settings: + 3 nM colchicine
Description: Bars show standard deviation. […] The scale bar for all cells is 10 μm. In FIG. 4F), bar graphs show changes in the proportion of HCT 116 cells with the different spindle phenotypes as in FIG. 4D (n=2368; N=3). […] Bars indicate standard deviation.

HCT116 spheroids = assay: Multicellular tumour spheroids; type: cell-based
Method: FIGS. 5A, 5B, 5C, 5D, 5E, 5F, 5G, 5H, 5I, 5J, 5K, 5L and 5M show how C75 disrupts or reduces the growth of HeLa, HCT116 and A549 spheroids. FIG. 5A) images show HeLa spheroids over time (3 days) before and after treatment with control (1 μM C87; n=10), 250 nM (n=6) or 500 nM (n=10) of C75. The scale bar is 100 μm. FIG. 5B) is a series images of HeLa spheroids after three days of treatment with control (500 nM C87) or 500 nM C75. The spheroids were stained for fluorescein diacetate (to detect live cells) and propidium iodide (to detect dead cells). […] The scale bar is 100 μm. FIG. 5C) is a line graph showing the change in spheroid area (μm^2) for each day and treatment as indicated. Bars show standard deviation and the asterisks are p<0.05 as determined by the student's t test. FIG. 5D) images show HeLa spheroids over 3 days before and after treatment with empty nanoparticles (control; n=3) or 250 nM of nanoparticle-encapsulated C75 (n=3). The scale bar is 100 μm. […] Bars show standard deviation and the asterisks are p<0.05 as determined by the student's t test. FIG. 5F) is a series of images of HCT116 spheroids treated with control (1 μM C87; n=10), 500 nM C75 (n=10) and 1 μM C75 (n=10). FIG. 5G) is a series images of HCT116 spheroids after six days of treatment with control (1 μM C87) or 1 μM C75. The spheroids were stained for fluorescein diacetate (live cells) and propidium iodide (dead cells). […] FIG. 5H) is a line graph showing the growth in surface area (%) of HCT116 spheroids treated with control (1 μM C87), 500 nM C75 and 1 μM C75 after six days. FIG. 5I) is a series of images of A549 spheroids treated with control (1 μM C87, n=6), 500 nM C75 (n=6), and 1 μM C75 (n=6) over 5 days. The scale bar is 100 μm. FIG. 5J) is a series of images of A549 spheroids after six days of treatment with control (750 nM C87) or 1 μM C75. The spheroids were stained for fluorescein diacetate (live cells) and propidium iodide (dead cells). […] Bars show standard deviation and the asterisks are p<0.05 as determined by the student's t test. FIG. 5L) images show A549 spheroids over 6 days before and after treatment with empty nanoparticles (control; n=3) or 500 nM of nanoparticle-encapsulated C75 (n=3). The scale bar is 100 μm. […] Bars show standard deviation and the asterisks are p<0.05 as determined by the student's t test.
FIG. 11A) is a series of images of HCT116 spheroids treated with control (DMSO), 10 nM paclitaxel, 250 nM C75 or both for 6 days. […] The scale bar for the images is 100 μm. […] As shown in the images, adding paclitaxel and C75 in combination led to regression in spheroid size compared to each treatment on its own.
The thienoisoquinoline compounds may also have potential for use in combinatorial therapies. […]

[2] = test system: HeLa cells with lower levels of endogenous MCAK (MCAK RNAi); assay: Spindle phenotypes with MCAK RNAi; type: cell-based, human; settings: 300 nM C75 or 30 nM colchicine
Description: FIG. 8B) is a bar graph showing the proportion of spindle phenotypes in HeLa cells treated as in 8A).
Since this is unique to C75, and ch-TOG RNAi was previously shown to be suppressed (partially) by MCAK RNAi, supporting C75's role in targeting ch-TOG or a component of the pathway.

S2 cells = assay: Spindle phenotypes in live S2 cells expressing GFP-tagged tubulin; type: cell-based, Drosophila; settings: 300 nM
Description: This will permit using Drosophila proteins for binding studies in vitro, and genetics-based tools for further study of the target.

Structure (SMILES): COc1ccc(S(=O)(=O)N2Cc3ccccc3-c3sc(Br)cc32)cc1 [Compound C75]
- pIC50 (A549 cells): 6.42
- pIC50 (HeLa cells): 6.37
- mitotic arrest in HeLa vs HFF1 [1]: selectively causes mitotic arrest
- lowering of the IC50 of C75 by subthreshold colchicine (HCT116 cells): ~2 fold
- spheroid growth, single drug (HCT116 spheroids; 10 nM paclitaxel or 250 nM C75 alone, 6 days): failed to grow
- spheroid growth, combination (HCT116 spheroids; 250 nM C75 + 10 nM paclitaxel, 6 days): regressed in size
- effect on spheroids (HCT116 spheroids; HCT116 spheroids): regress the growth
- suppression of fragmented spindle phenotype by MCAK RNAi [2]: partially suppressed
- spindle phenotype in Drosophila S2 cells (S2 cells): spindle phenotypes similar to what was observed in mammalian cells
